Results published in patent EP1637537A1, “New medicaments” (Riemser Arzneimittel AG, priority 2004, dated 2006).

What was measured:
[1] = Serum/plasma concentration-time profile after oral dosing in volunteers; assay type: in vivo, männliche und weiblichen Probanden
Description: Die Studie wurde an 12 männliche und weiblichen Probanden im Alter zwischen 18 und 45 Jahren durchgeführt. Der Wirkstoff (Methantheliniumbromid) wurden oral als Filmtablette oder als Lösung appliziert. Zu unterschiedlichen Zeiten nach der Dosierung wurden Messungen vorgenommen und Laborwerte zur Charakterisierung der Wirkung festgestellt.
Im Beispiel wurden 100 mg Wirkstoff als Filmtablette der folgenden Formulierung eingesetzt: • ◆ 50,0 mg Methantheliniumbromid • ◆ 30,0 mg Maisstärke • ◆ 18,75 mg Polyvinylprrolidon • ◆ 4,0 mg hochdisperses Siliziumdioxid • ◆ 146,25 mg Lactosemonohydrat • ◆ 1,0 mg Magnesiumsterarat • ◆ 1,0 mg Hydroxypropylmethylcellulose • ◆ 39,38 mg Talcum • ◆ 6,5 mg Gummi arabicum • ◆ 15,53 mg Calciumcarbonat • ◆ 7,73 mg Titandioxid • ◆ 6,58 mg Weißer Ton • ◆ 0,65 mg Macogol 6000 • ◆ 61,63 mg Saccharose • ◆ 1,0 mg E 100 • ◆ 0,1 mg Carnauba Wachs
Es ist auch möglich, eine reine Lösung von 100 mg Methantheliniumbromid in Wasser als Frischlösung herzustellen. Dabei empfiehlt es sich, den bitteren Geschmack des Wirkstoffes durch angenehme Geschmackskorrigentien zu überdecken. Hier bieten sich z. B. einige Spritzer eines Mundwassers mit Pfefferminzgeschmack an.
Ausdruck dafür ist das in der Figur 1 dargestellte Konzentrations-Zeit-Profil. Zu beachten ist eine deutliche individuelle Schwankungsbreite in der Serumkonzentration nach Zuführung beider Applikationsformen. […]

Würgereiz = assay: Gag reflex inhibition after gag stimulus, clinical study; assay type: in vivo, männlichen und weiblichen gesunden Probanden; conditions: oral 100 mg as Vagantin® film tablet or fresh solution; tested immediately after application and 1, 2 and 6 hours later (Figur 2)
Description: (§1) In einer klinischen Studie an 10 männlichen und weiblichen gesunden Probanden im Alter zwischen 20 und 60 Jahren wurde die Ausschaltung bzw. Verzögerung des Würgereizes und der Verminderung des Speichelflusses bei ärztlichen oder zahnärztlichen Manipulationen im Rachenraum geprüft.
(§2) Die obengenannte Filmtablettenformulierung bzw. die dort genannte Lösung von 100 mg Methantheliniumbromid in Wasser als Frischlösung wurde auch hier verwendet.
(§3) Nach Würgereizstimulus wurde die Würgereflexhemmung unmittelbar nach Applikation, sowie im Abstand von 1, 2 und 6 Stunden danach geprüft. Gleichzeitig wurde die Speichelflußrate vor und nach Einnahme von Methantheliniumbromid in Form von Vagantin® gemessen. […] Die Ergebnisse sind in den Figuren. 2 und 3 dargestellt.

Speichelfluß = assay: Saliva flow rate before and after intake, clinical study; assay type: in vivo, männlichen und weiblichen gesunden Probanden; conditions: oral 100 mg as Vagantin®; before and after intake (Figur 3)
Description: as §1, §2, §3
Figur 3 zeigt die Speichelsekretion in Abhängigkeit von der Methanthelinkonzentration im Plasma nach oraler Gabe von 100 mg Wirkstoff an gesunde Freiwillige. Ferner kann von einem Methanthelinbromidgehalt im Plasma von etwa 5 ng/ml über einen Zweitraum von 8 Stunden ausgegangen werden (Figur 1).

concentration at 8 h ([1]; human, plasma, oral, 100 mg, over a period of 8 hours (Figur 1), read-out: Methanthelinbromidgehalt im Plasma): ~5 ng/mL
SMILES: CC[N+](C)(CC)CCOC(=O)C1c2ccccc2Oc2ccccc21.[Br-] [Methantheliniumbromid, N,N-Diethyl-N-methyl-2-(xanthenylcarbonyloxy)ethylammoniumbromid]
Reaktion (Konzentrations-Zeit-Profil, Serumkonzentration) ([1]; oral drinking solution compared with film tablet, 100 mg (Figur 1)): etwas stärkere Reaktion als die Filmtablette | Würgereflexhemmung (Würgereiz): deutliche Verzögerung des Würgereizesreflexes | Speichelflußrate (Speichelfluß): deutliche Reduzierung des Speichelflusses
